Reference: patent US20250312469A1 (CANGET BIOTEKPHARMA, priority 2024, published 2025)
Where “and” joins values, the source holds several entries; their conditions need not be identical. Identical values can stand only once.

Legend:
CYP3A4 mRNA = details: human, hepatocytes
Description: (2) CYP positive inducers (Table 58a) and Williams' Medium E (WME) were purchased from Sigma-Aldrich (St. Louis, MO, USA). Dulbecco's phosphate-buffered saline (DPBS, pH 7.4) was purchased from Invitrogen (Carlsbad, CA, USA). Hepatocyte culture medium (serum-free) for CYP induction was purchased from XenoTech (catalog #K2300, Lenexa, KS, USA). The CellTiter 96 AQueous ONE Solution Cell Proliferation Assay was obtained from Promega (Madison, WI, USA). All other chemicals and reagents were of analytical grade or higher. (3) Fresh human hepatocytes (Table 58b) seeded at ˜0.15 million cells/well in 48-well plates (˜0.75 million cells/mL) were purchased from Thermo Fisher Scientific (Grand Island, NY, USA) and BioreclamationIVT (Baltimore, MD, USA).
Vehicle controls were treated in parallel with hepatocyte culture medium. […] (2) After the CYP induction treatment, the cells were used for a cell viability assay. […] The absorbance of formazan, which is proportional to the number of viable cells, was measured spectrophotometrically using the CellTiter 96 AQueous ONE Solution Cell Proliferation Assay. […] The concentration of RNA was determined using a Qubit Fluorometer with a Qubit RNA HS assay kit (Invitrogen). cDNA was synthesized from up to 1 μg of the total RNA harvested from the cells using a QuantiTect RT kit (Qiagen). […]

UbE2T = molecular target: T1, UbE2T (Homo sapiens, UniProt Q9NPD8); assay: UbE2T protein (WB) and mRNA (RT-PCR) in PCa cells; format: cell-based; parameters: purchased Invitrogen ProtoArray Human Protein Microarray v5.0
T1 sequence (Q9NPD8 1-197): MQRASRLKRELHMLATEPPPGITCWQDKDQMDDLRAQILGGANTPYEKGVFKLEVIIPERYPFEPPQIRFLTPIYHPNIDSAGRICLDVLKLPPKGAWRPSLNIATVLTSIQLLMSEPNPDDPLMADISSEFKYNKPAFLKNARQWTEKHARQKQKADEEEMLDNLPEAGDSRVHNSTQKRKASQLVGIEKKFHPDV
Method: Cells were then lysed to determine UbE2T protein expression (WB) and mRNA (real-time RT-PCR).
Twenty to fifty μg total protein from each sample (cell lysis or tumor tissue lysis) were heated at 95° C. for 5 minutes after mixing with equal volumes of 2× SDS loading buffer. […] Next, the membrane was incubated with different primary antibodies in TBS-T containing 5% BSA overnight at 4° C. in the range of dilutions from 1:500 to 1:2000 based on the antibody dilution recommended by antibody firms. After washing with TBS-T, the membrane was incubated in TBS-T buffer containing 5% skim milk and corresponding secondary antibody (1:5000) for 45-60 minutes at room temperature with shaking. Proteins of interest were detected using Western Lightning ECL-Plus (Perkin Elmer, Waltham, MA) and visualized by various times (3-120 seconds) of exposure. Actin, tubulin and/or GAPDH were detected as the internal control to normalize total protein loading for each sample.
Pertinent to this study, total RNAs were extracted from cancer cells using TRI REAGENT RT (Molecular Research Center), and 5 μg per sample was converted to cDNA with anchored oligo (dT) primers using RevertAid First Strand cDNA Synthesis Kit (Thermo Fisher Scientific, Catalog No. K1622) following the manufacturer's instructions. […] The data were analyzed using the Applied Biosystems 7300 Real Time PCR System and normalized to GAPDH.

[1] = test system: LAPC9-AI vs. LAPC9-AD cells; assay: LAPC9 organoid assay; format: cell-based
Plasma stability = format: in vitro ADME, human
Method: Both matrices were adjusted to pH 7.4 prior to initiating the experiments. A DMSO stock as first prepared for the test article. […] The vials were kept in a benchtop Thermomixer for the duration of the experiment. Aliquots (100 μL) were taken at each time point (0, 15, 30, 60, and 120 minutes) and added to 96-well plates which had been pre-filled with 300 μL of acetonitrile (ACN). Samples were stored at 4° C. until the end of the experiment. […] Analytical conditions are outlined in Appendix 1.

TA97a = assay: Ames Bacterial Reverse Mutation Assay; details: for Background Lawn Code / Colony Counts Average / Colony Counts Replicate 1-3: TA97a
Method: (§1) The Ames Bacterial Reverse Mutation (AB™) used five bacterial tester strains (TA97a, TA98, TA100, TA1535, WP2-uvrA).
(§2) Tester strains were added to flasks containing nutrient broth and incubated at 37+2° C. overnight. The flasks were removed from the overnight incubation and the final concentration was determined (the OD was measured and determined whether growth was suitable for testing). Top agar was melted, and 2.0 mL was dispensed into heated culture tubes. The S9 mix (metabolic activation) was prepared and stored on ice. […] Each culture tube was vortexed and immediately poured onto the labeled minimal glucose agar plates. All plates were inverted and placed into a 37±1° C. incubator for 48-72 hours. The plates were counted via an automated colony counter or by hand and the background lawn was microscopically evaluated for any signs of toxicity. Genotypic control plates were prepared for each tester strain and incubated for 24-72 hours at 37±1° C.

[2] = test system: Panc-1 and MiaPaca-2 cells; assay: 3D cell spheroid formation and viability; format: cell-based, human
Method: 3D) cell spheroid formation studies: Pancreatic cancer cells were cultured in the ultra-low attachment plates in the pancreatic cancer organoid culture medium. In some studies, to observe the spheroid formation, DDX5 KO pancreatic cancer cells in the presence and absence of Agrin at a concentration of 2.5 μg/mL, 5 μg/mL and/or 10 μg/mL for 6-7 days were cultured. […] Representative images were take during this time and cell viability was determined by MTT assay.

[3] = FL118 drug substance chemical stability (HPLC)
TA100 = assay: Ames Bacterial Reverse Mutation Assay
Method: as §1, §2

P-gp = assay: in vitro; details: human
Method: Cell monolayers were grown to confluence on collagen-coated, microporous, polycarbonate membranes in 12-well Costar Transwell R plates. […] The permeability assay buffer was Hanks' balanced salt solution (HBSS) containing 10 mM HEPES and 15 mM glucose at a pH of 7.4. The buffer in the receiver chamber also contained 1% bovine serum albumin. […] Cells were first pre-incubated for 30 minutes with HBSS containing+/−1 μM valspodar. Cell monolayers were dosed on the apical side (A-to-B) or basolateral side (B-to-A) and incubated at 37° C. with 5% CO2 in a humidified incubator. Samples were taken from the donor and receiver chambers at 120 minutes. Each determination was performed in duplicate. The flux of co-dosed lucifer yellow was also measured for each monolayer to ensure no damage was inflicted to the cell monolayers during the flux period. All samples were assayed by LC-MS/MS using electrospray ionization. […] The apparent permeability (Papp) and percent recovery were calculated as follows:
Where, dCr/dt is the slope of the cumulative concentration in the receiver compartment versus time in μM s^−1;Vr is the volume of the receiver compartment in. cm^3; Vd is the volume of the donor compartment in cm^3; A is the area of the insert (1.13 cm^2 for 12-well Transwell); CA is the average of the nominal dosing concentration and the measured 120 minute donor concentration in μM; CN is the nominal concentration of the dosing solution in μM; Cr^Final is the cumulative receiver concentration in μM at the end of the incubation period; and Cd^Final is the concentration of the donor in μM at the end of the incubation period.
Efflux ratio (ER) is defined as Papp (B-to-A)/Papp (A-to-B)

CCC1(O)C(=O)OCc2c1cc1n(c2=O)Cc2cc3cc4c(cc3nc2-1)OCO4 (stereo not drawn) [FL118]
minor induction of CYP3A4 (CYP3A4 mRNA): 5-8% | minor induction of CYP3A4 mRNA (CYP3A4 mRNA): FL118 induces a minor induction (5-8%) of CYP3A4 | UbE2T mRNA (UbE2T): without inhibiting its mRNA levels | UbE2T protein (UbE2T): inhibits UbE2T protein in a dose- and time-dependent manner | toxicity to AR−/lo LAPC9-AI vs AR+ LAPC9-AD cells [1]: selective toxicity | half-life (Plasma stability; 0.5 μM): long half-life | Percent Remaining (Plasma stability; Human Plasma, 0 min): 100% | Percent Remaining (Plasma stability; Human Plasma, 15 min): 111% | Percent Remaining (Plasma stability; Human Plasma, 30 min): 110% | Percent Remaining (Plasma stability; Human Plasma, 60 min): 94% | Percent Remaining (Plasma stability; Human Plasma, 120 min): 26% | half-life at 0.5 μM (Plasma stability; both sexes, plasma (sodium heparin), pH 7.4, Human Plasma): 92 min | bacterial strain mutation (TA97a): does not induce | mean revertant colonies over negative control (TA97a; +/− S9): less than 2 fold | Background Lawn Code (TA97a; 0.010 μM +S9): 1 | Colony Counts Average (TA97a; 0.010 μM +S9): 141 | Colony Counts Replicate 1-3 (TA97a; 0.010 μM +S9): 123 and 140 and 161 | Background Lawn Code (TA97a; 0.010 μM −S9): 1 | Colony Counts Average (TA97a; 0.010 μM −S9): 101 | Colony Counts Replicate 1-3 (TA97a; 0.010 μM −S9): 108 and 105 and 90 | Background Lawn Code (TA97a; 0.10 μM +S9): 1 | Colony Counts Average (TA97a; 0.10 μM +S9): 172 | Colony Counts Replicate 1-3 (TA97a; 0.10 μM +S9): 189 and 150 and 178 | Background Lawn Code (TA97a; 0.10 μM −S9): 1 | Colony Counts Average (TA97a; 0.10 μM −S9): 95 | Colony Counts Replicate 1-3 (TA97a; 0.10 μM −S9): 116 and 87 and 82 | Background Lawn Code (TA97a; 1.0 μM +S9): 1 | Colony Counts Average (TA97a; 1.0 μM +S9): 142 | Colony Counts Replicate 1-3 (TA97a; 1.0 μM +S9): 140 and 146 and 139 | Background Lawn Code (TA97a; 1.0 μM −S9): 1 | Colony Counts Average (TA97a; 1.0 μM −S9): 119 | Colony Counts Replicate 1-3 (TA97a; 1.0 μM −S9): 111 and 113 and 134 | 3D spheroid formation [2]: inhibited | cell viability in 3D culture [2]: inhibited in a FL118 concentration-dependent manner | Hygroscope [3]: 0.07% and 0.20% and 0.38% | purity and impurity retest [3]: still well passing the purity and impurity requirement | bacterial strain mutation (TA100): does not induce | mean revertant colonies over negative control (TA100; +/− S9): less than 2 fold | Background Lawn Code (TA100; TA100, 0.010 μM +S9): 1 | Colony Counts Average (TA100; TA100, 0.010 μM +S9): 92 | Colony Counts Replicate 1-3 (TA100; TA100, 0.010 μM +S9): 101 and 96 and 79 | Background Lawn Code (TA100; TA100, 0.010 μM −S9): 1 | Colony Counts Average (TA100; TA100, 0.010 μM −S9): 77 | Colony Counts Replicate 1-3 (TA100; TA100, 0.010 μM −S9): 72 and 79 and 80 | Background Lawn Code (TA100; TA100, 0.10 μM +S9): 1 | Colony Counts Average (TA100; TA100, 0.10 μM +S9): 89 | Colony Counts Replicate 1-3 (TA100; TA100, 0.10 μM +S9): 96 and 74 and 98 | Background Lawn Code (TA100; TA100, 0.10 μM −S9): 1 | Colony Counts Average (TA100; TA100, 0.10 μM −S9): 87 | Colony Counts Replicate 1-3 (TA100; TA100, 0.10 μM −S9): 89 and 77 and 94 | Background Lawn Code (TA100; TA100, 1.0 μM +S9): 1 | Colony Counts Average (TA100; TA100, 1.0 μM +S9): 99 | Colony Counts Replicate 1-3 (TA100; TA100, 1.0 μM +S9): 105 and 106 and 87 | Background Lawn Code (TA100; TA100, 1.0 μM −S9): 1 | Colony Counts Average (TA100; TA100, 1.0 μM −S9): 83 | Colony Counts Replicate 1-3 (TA100; TA100, 1.0 μM −S9): 94 and 75 and 81 | Papp A→B at 120 min, 1 μM (P-gp; Caco-2, pH 7.4, Papp AVG, Caco-2, A-to-B, without valspodar): 6.97 ×10⁻⁶ cm/s | Papp B→A at 120 min, 1 μM (P-gp; Caco-2, pH 7.4, Papp AVG, Caco-2, B-to-A, without valspodar): 8.1 ×10⁻⁶ cm/s | Papp A→B at 120 min, 1 μM (P-gp; Caco-2, pH 7.4, Papp R1, Caco-2, A-to-B, without valspodar): 7.27 ×10⁻⁶ cm/s | Papp B→A at 120 min, 1 μM (P-gp; Caco-2, pH 7.4, Papp R1, Caco-2, B-to-A, without valspodar): 7.35 ×10⁻⁶ cm/s | Papp A→B at 120 min, 1 μM (P-gp; Caco-2, pH 7.4, Papp R2, Caco-2, A-to-B, without valspodar): 6.67 ×10⁻⁶ cm/s | Papp B→A at 120 min, 1 μM (P-gp; Caco-2, pH 7.4, Papp R2, Caco-2, B-to-A, without valspodar): 8.86 ×10⁻⁶ cm/s | recovery at 120 min, 1 µM (P-gp; Caco-2, pH 7.4, Recovery (%), Caco-2, A-to-B, without valspodar): 43% | recovery at 120 min, 1 µM (P-gp; Caco-2, pH 7.4, Recovery (%), Caco-2, B-to-A, without valspodar): 48% | recovery at 120 min, 1 µM (P-gp; Caco-2, pH 7.4, with valspodar 1 µM, Recovery (%), Caco-2, A-to-B, + 1 μM Valspodar): 46% | recovery at 120 min, 1 µM (P-gp; Caco-2, pH 7.4, with valspodar 1 µM, Recovery (%), Caco-2, B-to-A, + 1 μM Valspodar): 48%
